Where two headings read alike, the source gives them in different places.
Molecular target: human O-GlcNAcase (Homo sapiens (Human), UniProt O60502)
Assay: Fluorescence-based assay for determination of KI values for inhibition of O-GlcNAcase activity
Assay type: biochemical
Experimental: Assay for Determination of KI Values for Inhibition of O-GlcNAcase Activity
Experimental Procedure for Kinetic Analyses
Enzymatic reactions are carried out in a reaction containing 50 mM NaH2PO4, 100 mM NaCl and 0.1% BSA (pH 7.0) using 2 mM 4-Methylumbelliferyl N-acetyl-β-D-glucosaminide dihydrate (Sigma M2133) dissolved in ddH2O, as a substrate. The amount of purified human O-GlcNAcase enzyme used in the reaction is 0.7 nM. Test compound of varying concentrations is added to the enzyme prior to initiation of the reaction. The reaction is performed at room temperature in a 96-well plate and is initiated with the addition of substrate. […] The slope of product production is determined for each concentration of compound tested and plotted, using standard curve fitting algorithms for sigmoidal dose response curves. The values for a four parameter logistic curve fit of the data are determined.

[1] = purified human O-GlcNAcase, 4-Methylumbelliferyl N-acetyl-β-D-glucosaminide substrate, pH 7.0, Cheng-Prusoff, read-out: Fluorescence-based hOGA Ki

human O-GlcNAcase, sequence (O60502 whole entry): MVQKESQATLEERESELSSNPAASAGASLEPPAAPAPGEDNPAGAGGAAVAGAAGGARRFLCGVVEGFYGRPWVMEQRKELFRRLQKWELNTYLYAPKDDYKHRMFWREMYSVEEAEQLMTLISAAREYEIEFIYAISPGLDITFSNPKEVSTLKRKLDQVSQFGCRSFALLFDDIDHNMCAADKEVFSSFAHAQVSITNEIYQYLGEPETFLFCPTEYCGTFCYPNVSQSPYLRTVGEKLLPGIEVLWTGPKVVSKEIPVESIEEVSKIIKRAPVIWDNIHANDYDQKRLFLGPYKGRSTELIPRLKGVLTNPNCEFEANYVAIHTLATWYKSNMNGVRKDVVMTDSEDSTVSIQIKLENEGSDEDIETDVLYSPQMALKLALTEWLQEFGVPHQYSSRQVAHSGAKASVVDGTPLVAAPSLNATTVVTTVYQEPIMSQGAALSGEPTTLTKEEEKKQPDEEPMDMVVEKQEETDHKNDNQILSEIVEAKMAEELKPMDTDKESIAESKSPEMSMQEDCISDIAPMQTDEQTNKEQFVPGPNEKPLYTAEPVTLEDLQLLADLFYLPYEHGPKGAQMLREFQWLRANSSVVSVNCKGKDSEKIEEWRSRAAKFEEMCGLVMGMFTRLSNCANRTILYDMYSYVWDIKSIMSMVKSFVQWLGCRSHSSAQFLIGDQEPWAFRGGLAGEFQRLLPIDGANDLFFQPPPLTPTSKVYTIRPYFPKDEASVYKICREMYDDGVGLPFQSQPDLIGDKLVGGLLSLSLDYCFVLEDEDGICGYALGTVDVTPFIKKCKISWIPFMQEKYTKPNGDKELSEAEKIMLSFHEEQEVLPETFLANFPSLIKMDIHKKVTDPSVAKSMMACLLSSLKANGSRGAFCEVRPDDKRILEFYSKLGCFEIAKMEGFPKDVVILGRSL

Structure (SMILES) | Ki [1] [nM] | Ki [nM]
CN(C)C1=N[C@@H]2[C@@H](O)[C@H](O)[C@@H](C(C)(O)C(F)(F)F)O[C@@H]2S1 (mixture of isomers) [Example 203, (3aR,5S,6S,7R,7aR)-2-(dimethylamino)-5-((S)-1,1,1-trifluoro-2-hydroxypropan-2-yl)-5,6,7,7a-tetrahydro-3aH-pyrano[3,2-d]thiazole-6,7-diol] | 3.16 | 
CNC1=N[C@@H]2[C@@H](O)[C@H](O)[C@@H]([C@H](C)O)O[C@@H]2S1 (single isomer, unassigned) [Example 13] | 0.4 | 
C=CC[C@H](O)[C@H]1O[C@@H]2SC(NC)=N[C@@H]2[C@@H](O)[C@@H]1O (single isomer, unassigned) [Example 25] | 0.7 | 
CCNC1=N[C@@H]2[C@@H](O)[C@H](O)[C@@H]([C@H](C)O)O[C@@H]2S1 (single isomer, unassigned) [Example 27] | 0.12 | 
C=C[C@H](O)[C@H]1O[C@@H]2SC(NCCC)=N[C@@H]2[C@@H](O)[C@@H]1O (single isomer, unassigned) [Example 42] | 1.03 | 
CCCNC1=N[C@H]2C(O[C@H]([C@@H](O)CC)[C@@H](O)[C@@H]2O)S1 (single isomer, unassigned) [Example 47] | 6.4 | 
CON(C)C1=N[C@@H]2[C@@H](O)[C@H](O)[C@@H]([C@H](C)O)O[C@@H]2S1 (single isomer, unassigned) [Example 51] |  | 5.1
C[C@H](O)[C@H]1O[C@@H]2SC(NCC3CC3)=N[C@@H]2[C@@H](O)[C@@H]1O (single isomer, unassigned) [Example 53] | 0.7 | 
CCN(C)C1=N[C@H]2C(O[C@H]([C@H](C)O)[C@@H](O)[C@@H]2O)S1 (single isomer, unassigned) [Example 57] | 0.33 | 
C=CC(O)C1O[C@@H]2SC(N(C)CC)=N[C@@H]2[C@@H](O)[C@@H]1O (single isomer, unassigned) [Example 61] | 2.46 | 
C=C[C@H](O)[C@H]1O[C@@H]2SC(N(C)C)=N[C@@H]2[C@@H](O)[C@@H]1O (single isomer, unassigned) [Example 63] | 0.22 | 
C=C(C)[C@H](O)[C@H]1O[C@@H]2SC(N(C)C)=N[C@@H]2[C@@H](O)[C@@H]1O (single isomer, unassigned) [Example 65] | 0.45 | 
C=CC[C@H](O)[C@H]1O[C@@H]2SC(N(C)C)=N[C@@H]2[C@@H](O)[C@@H]1O (single isomer, unassigned) [Example 67] | 1.25 | 
CCC[C@H](O)[C@H]1O[C@@H]2SC(N(C)C)=N[C@@H]2[C@@H](O)[C@@H]1O (single isomer, unassigned) [Example 69] | 9.36 | 
CCCC[C@H](O)[C@H]1O[C@@H]2SC(N(C)C)=N[C@@H]2[C@@H](O)[C@@H]1O (single isomer, unassigned) [Example 71] | 9.12 | 
C[C@H](O)[C@H]1O[C@@H]2SC(N3CCC3)=N[C@@H]2[C@@H](O)[C@@H]1O (single isomer, unassigned) [Example 76] | 0.18 | 

Structure (SMILES) | Ki [1] [nM] | Ki [nM]
C=C[C@H](O)[C@H]1O[C@@H]2SC(N3CCC3)=N[C@@H]2[C@@H](O)[C@@H]1O (single isomer, unassigned) [Example 80] | 0.5 | 
C=CC[C@H](O)[C@H]1O[C@@H]2SC(N3CCC3)=N[C@@H]2[C@@H](O)[C@@H]1O (single isomer, unassigned) [Example 82] | 5.84 | 
C[C@H](O)[C@H]1O[C@@H]2SC(N3CCCC3)=N[C@@H]2[C@@H](O)[C@@H]1O (single isomer, unassigned) [Example 91] | 0.53 | 
CNC1=N[C@@H]2[C@@H](O)[C@H](O)[C@@H]([C@@H](C)F)O[C@@H]2S1 (single isomer, unassigned) [Example 181] | 0.8 | 
CCN(C)C1=N[C@@H]2[C@@H](O)[C@H](O)[C@@H]([C@@H](O)C(F)(F)F)O[C@@H]2S1 (single isomer, unassigned) [Example 211] | 0.44 | 
C[C@H](O)[C@H]1O[C@@H]2SC(N(C)C)=N[C@@H]2[C@@H](O)[C@@H]1O [Example 1, (3aR,5R,6S,7R,7aR)-2-(Dimethylamino)-5-((S)-1-hydroxyethyl)-5,6,7,7a-tetrahydro-3aH-pyrano[3,2-d]thiazole-6,7-diol] | 0.17 | 
CCCNC1=N[C@@H]2[C@@H](O)[C@H](O)[C@@H]([C@H](C)O)O[C@@H]2S1 [Example 2, (3aR,5R,6S,7R,7aR)-5-((S)-1-hydroxyethyl)-2-(propylamino)-5,6,7,7a-tetrahydro-3aH-pyrano[3,2-d]thiazole-6,7-diol] | 0.05 | 
CNC1=N[C@@H]2[C@@H](O)[C@H](O)[C@@H](C(C)(C)O)O[C@@H]2S1 [Example 3, (3aR,5S,6S,7R,7aR)-5-(2-Hydroxypropan-2-yl)-2-(methylamino)-5,6,7,7a-tetrahydro-3aH-pyrano[3,2-d]thiazole-6,7-diol] | 0.9 | 
CN(C)C1=N[C@@H]2[C@@H](O)[C@H](O)[C@@H](C(C)(C)O)O[C@@H]2S1 [Example 4, (3aR,5S,6S,7R,7aR)-2-(dimethylamino)-5-(2-hydroxypropan-2-yl)-5,6,7,7a-tetrahydro-3aH-pyrano[3,2-d]thiazole-6,7-diol] | 3.1 | 
CC[C@H]1O[C@@H]2SC(NC)=N[C@@H]2[C@@H](O)[C@@H]1O [Example 8, (3aR,5R,6S,7R,7aR)-5-Ethyl-2-(methylamino)-5,6,7,7a-tetrahydro-3aH-pyrano[3,2-d]thiazole-6,7-diol] | 0.68 | 
CN(C)C1=N[C@@H]2[C@@H](O)[C@H](O)[C@@H]([C@@H](O)C(F)(F)F)O[C@@H]2S1 [Example 11, (3aR,5S,6S,7R,7aR)-2-(dimethylamino)-5-((R)-2,2,2-trifluoro-1-hydroxyethyl)-5,6,7,7a-tetrahydro-3aH-pyrano[3,2-d]thiazole-6,7-diol] | 0.3 | 
CC(C)(O)[C@H]1O[C@@H]2SC(N3CCC3)=N[C@@H]2[C@@H](O)[C@@H]1O [Example 77, (3aR,5S,6S,7R,7aR)-2-(azetidin-1-yl)-5-(2-hydroxypropan-2-yl)-5,6,7,7a-tetrahydro-3aH-pyrano[3,2-d]thiazole-6,7-diol] | 16.3 | 
CNC1=N[C@@H]2[C@@H](O)[C@H](O)[C@@H]([C@@H](O)C(F)(F)F)O[C@@H]2S1 [Example 95, (3aR,5S,6S,7R,7aR)-2-(methylamino)-5-((R)-2,2,2-trifluoro-1-hydroxyethyl)-5,6,7,7a-tetrahydro-3aH-pyrano[3,2-d]thiazole-6,7-diol] | 0.16 | 
CCCNC1=N[C@@H]2[C@@H](O)[C@H](O)[C@@H]([C@@H](O)C(F)(F)F)O[C@@H]2S1 [Example 97, (3aR,5S,6S,7R,7aR)-2-(propylamino)-5-((R)-2,2,2-trifluoro-1-hydroxyethyl)-5,6,7,7a-tetrahydro-3aH-pyrano[3,2-d]thiazole-6,7-diol] | 0.17 | 
CON(C)C1=N[C@@H]2[C@@H](O)[C@H](O)[C@@H]([C@@H](O)C(F)(F)F)O[C@@H]2S1 [Example 98, (3aR,5S,6S,7R,7aR)-2-(methoxy(methyl)amino)-5-((R)-2,2,2-trifluoro-1-hydroxyethyl)-5,6,7,7a-tetrahydro-3aH-pyrano[3,2-d]thiazole-6,7-diol] | 1.43 | 
C[C@@H](O)[C@H]1O[C@@H]2SC(N(C)C)=N[C@@H]2[C@@H](O)[C@@H]1O [Example 104, (3aR,5R,6S,7R,7aR)-2-(dimethylamino)-5-((R)-1-hydroxyethyl)-5,6,7,7a-tetrahydro-3aH-pyrano[3,2-d]thiazole-6,7-diol] | 3.63 | 
